Results taken from patent publication US11292801B2, “Calpain modulators and therapeutic uses thereof” (Blade Therapeutics, Inc., priority 2016, dated 2022).

Experiments:
Human Calpain 1/NS1 = target: T1, Human Calpain 1/NS1 (Homo sapiens, UniProt P07384); assay: Biochemical inhibition of calpain 1, continuous fluorescence (FRET substrate) assay; settings: mean, read-out: Human Calpain 1/NS1 IC50 (nM)_MEAN
T1 sequence (P07384 1-714): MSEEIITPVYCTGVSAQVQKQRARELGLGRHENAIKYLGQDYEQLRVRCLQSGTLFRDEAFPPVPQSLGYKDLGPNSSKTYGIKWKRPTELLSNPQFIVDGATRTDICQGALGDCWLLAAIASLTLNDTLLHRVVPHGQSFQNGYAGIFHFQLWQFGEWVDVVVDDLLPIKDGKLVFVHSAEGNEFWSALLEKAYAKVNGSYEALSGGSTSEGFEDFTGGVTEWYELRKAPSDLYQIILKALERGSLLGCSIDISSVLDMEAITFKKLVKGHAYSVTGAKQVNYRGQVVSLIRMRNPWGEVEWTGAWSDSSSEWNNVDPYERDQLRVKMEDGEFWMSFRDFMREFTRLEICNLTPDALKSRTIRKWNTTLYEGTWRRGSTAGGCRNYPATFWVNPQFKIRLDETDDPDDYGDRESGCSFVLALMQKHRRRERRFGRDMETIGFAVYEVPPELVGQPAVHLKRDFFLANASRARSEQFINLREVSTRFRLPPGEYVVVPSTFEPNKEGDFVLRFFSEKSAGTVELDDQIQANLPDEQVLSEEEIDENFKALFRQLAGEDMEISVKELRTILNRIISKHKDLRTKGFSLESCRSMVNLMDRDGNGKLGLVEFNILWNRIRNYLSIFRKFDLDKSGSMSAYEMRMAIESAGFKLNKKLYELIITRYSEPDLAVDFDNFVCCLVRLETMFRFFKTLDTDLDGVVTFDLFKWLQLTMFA
T1 sequence (P04632 1-268 partner): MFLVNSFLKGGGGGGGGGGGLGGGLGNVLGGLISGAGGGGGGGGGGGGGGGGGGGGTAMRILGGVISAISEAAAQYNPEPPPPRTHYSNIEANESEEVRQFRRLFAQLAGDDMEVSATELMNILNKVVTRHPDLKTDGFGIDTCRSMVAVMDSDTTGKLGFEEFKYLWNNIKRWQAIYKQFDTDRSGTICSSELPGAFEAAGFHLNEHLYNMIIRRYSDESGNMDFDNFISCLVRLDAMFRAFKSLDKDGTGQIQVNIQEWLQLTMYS
Outline: (§1)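 IC50 values come from 4-parameter fits of progress-curve rates (1-5 min slopes) against log inhibitor concentration. Calpain and inhibitor premixed at ambient 25C in Tris pH ~7.5/NaCl/DTT buffer, then CaCl2 and FRET substrate added to activate; 5-FAM fluorescence (ex 490/em 520) followed 10 min.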

Human Calpain 2/NS1 = target: T2, Human Calpain 2/NS1 (Homo sapiens, UniProt P17655); assay: Biochemical inhibition of calpain 2, continuous fluorescence (FRET substrate) assay; settings: mean, read-out: Human Calpain 2/NS1 IC50 (nM)_MEAN
T2 sequence (P17655 1-700): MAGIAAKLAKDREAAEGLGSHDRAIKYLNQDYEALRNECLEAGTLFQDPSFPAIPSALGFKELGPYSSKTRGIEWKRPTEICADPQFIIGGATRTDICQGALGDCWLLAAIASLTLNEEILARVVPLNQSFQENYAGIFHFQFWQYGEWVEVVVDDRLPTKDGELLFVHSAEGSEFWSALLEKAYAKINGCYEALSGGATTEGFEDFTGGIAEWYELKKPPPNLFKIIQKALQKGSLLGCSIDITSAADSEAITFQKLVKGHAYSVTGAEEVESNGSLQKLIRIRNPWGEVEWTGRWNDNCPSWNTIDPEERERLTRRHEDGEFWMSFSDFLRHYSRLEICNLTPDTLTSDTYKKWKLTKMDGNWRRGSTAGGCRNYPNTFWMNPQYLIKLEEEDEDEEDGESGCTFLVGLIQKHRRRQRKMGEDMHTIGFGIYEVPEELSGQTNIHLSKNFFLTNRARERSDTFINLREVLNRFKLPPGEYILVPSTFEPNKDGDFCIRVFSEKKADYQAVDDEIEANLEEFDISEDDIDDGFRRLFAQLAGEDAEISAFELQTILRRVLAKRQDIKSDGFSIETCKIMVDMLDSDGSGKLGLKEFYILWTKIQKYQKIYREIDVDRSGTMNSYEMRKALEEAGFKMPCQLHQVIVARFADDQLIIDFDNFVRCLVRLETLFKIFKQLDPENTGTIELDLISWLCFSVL
T2 sequence (P04632 1-268 partner): T1 sequence (P04632 1-268 partner)
Outline: as §1

Human Calpain 9/NS1 = target: T3, Human Calpain 9/NS1 (Homo sapiens, UniProt O14815); assay: Biochemical inhibition of calpain 9, continuous fluorescence (FRET substrate) assay; settings: mean, read-out: Human Calpain 9/NS1 IC50 (nM)_MEAN
T3 sequence (O14815 1-690): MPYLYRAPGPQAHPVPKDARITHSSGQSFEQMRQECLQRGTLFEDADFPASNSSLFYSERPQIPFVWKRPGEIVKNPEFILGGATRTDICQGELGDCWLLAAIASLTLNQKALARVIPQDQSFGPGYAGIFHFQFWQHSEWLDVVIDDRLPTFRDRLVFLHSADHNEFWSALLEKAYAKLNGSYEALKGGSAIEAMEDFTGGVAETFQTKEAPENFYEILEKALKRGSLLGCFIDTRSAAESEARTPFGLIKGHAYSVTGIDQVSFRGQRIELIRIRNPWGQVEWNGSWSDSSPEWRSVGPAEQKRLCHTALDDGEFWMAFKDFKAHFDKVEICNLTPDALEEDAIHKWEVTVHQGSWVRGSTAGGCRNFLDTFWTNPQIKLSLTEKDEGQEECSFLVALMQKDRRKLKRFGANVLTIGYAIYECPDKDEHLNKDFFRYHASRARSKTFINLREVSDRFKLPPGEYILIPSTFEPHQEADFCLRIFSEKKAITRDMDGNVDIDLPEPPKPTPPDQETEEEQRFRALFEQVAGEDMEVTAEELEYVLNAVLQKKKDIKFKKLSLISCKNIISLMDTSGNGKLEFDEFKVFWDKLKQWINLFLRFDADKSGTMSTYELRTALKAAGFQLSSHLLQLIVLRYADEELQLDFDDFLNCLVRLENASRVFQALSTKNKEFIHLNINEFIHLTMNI
T3 sequence (P04632 1-268 partner): T1 sequence (P04632 1-268 partner)
Outline: as §1

Compound	IC50 (Human Calpain 1/NS1) [nM]	IC50 (Human Calpain 2/NS1) [nM]	IC50 (Human Calpain 9/NS1) [nM]
CCOC(=O)CCNC(=O)C(=O)[C@@H]1C/C=C/COCCOCc2ccccc2C(=O)N1 [Compound 63, Ethyl (S,E)-3-(2-oxo-2-(12-oxo-1,3,4,6,9,10,11,12-octahydrobenzo[f][1,4]dioxa[9]azacyclotetradecin-10-yl)acetamido)propanoate]	> 10000	> 10000	> 10000
O=C[C@@H]1CC=CCCCCCc2ncccc2C(=O)N1 [Compound 50, (S)-5-Oxo-6,7,8,11,12,13,14,15-octahydro-5h-pyrido[3,2-c][1]aza-cyclotridecine-7-carbaldehyde]	> 10000	3000 to 10000	< 3000
CCOC(=O)CNC(=O)C(=O)[C@@H]1CCCCOCCOCc2ccccc2C(=O)N1 [Compound 56, Ethyl (S)-(2-oxo-2-(12-oxo-1,3,4,6,7,8,9,10,11,12-decahydrobenzo[f][1,4]dioxa[9]azacyclotetradecin-10-yl)acetyl)glycinate]	> 10000	< 3000	< 3000
O=C[C@@H]1CCCCCOc2cccc(c2)-c2ccccc2C(=O)N1 [Compound 30, (S)-11-Oxo-3-oxa-10-aza-1(1,2),2(1,3)-dibenzenacycloundecaphane-9-carbaldehyde]	< 3000	< 3000	< 3000
O=C(NCCc1ccccn1)C(=O)C1CCCCOCCOCc2ccccc2C(=O)N1 (stereo not drawn) [Compound 82, 2-Oxo-2-(12-oxo-1,3,4,6,7,8,9,10,11,12-decahydrobenzo[f][1,4]dioxa[9]aza-cyclotetradecin-10-yl)-N-(2-(pyridin-2-yl)ethyl)acetamide]	> 10000	> 10000	3000 to 10000
O=C[C@@H]1CCCCOCCOCc2ccccc2C(=O)N1 [Compound 43, (S)-12-Oxo-1,3,4,6,7,8,9,10,11,12-decahydrobenzo[f][1,4]dioxa[9]aza-cyclotetradecine-10-carbaldehyde]	> 10000	< 3000	< 3000

Next, values leading:

IC50 (Human Calpain 1/NS1) [nM]	IC50 (Human Calpain 2/NS1) [nM]	IC50 (Human Calpain 9/NS1) [nM]	Compound
< 3000	< 3000	< 3000	O=C[C@@H]1Cc2ccc(cc2)OC/C=C/COc2cccc(c2)-c2ccn(n2)-c2ncccc2C(=O)N1 [Compound 44, (2^2E,6S,11E)-4-oxo-2^1H-9,14-dioxa-5-aza-3(2,3)-pyridina-2(3,1)-pyrazola-1(1,3),8(1,4)-dibenzenacyclotetradecaphan-11-ene-6-carbaldehyde]
> 10000	> 10000	3000 to 10000	O=C(NCc1c(F)cccc1Cl)C(=O)C1CCCCOCCOCc2ccccc2C(=O)N1 (stereo not drawn) [Compound 107]
> 10000	> 10000	3000 to 10000	O=C(NC1CC1)C(=O)[C@@H]1C/C=C/COCCOCc2ccccc2C(=O)N1 [Compound 79, (S,E)-N-cyclopropyl-2-oxo-2-(12-oxo-1,3,4,6,9,10,11,12-octahydrobenzo[f][1,4]dioxa[9]azacyclotetradecin-10-yl)acetamide]
> 10000	> 10000	3000 to 10000	O=C(NCc1ccccc1)C(=O)[C@@H]1CC=CCCCCOc2ccccc2C(=O)N1 [Compound 7, (S)—N-benzyl-2-oxo-2-(11-oxo-2,3,4,5,8,9,10,11-octahydrobenzo[b][1]oxa[5]azacyclotridecin-9-yl)acetamide]
> 10000	3000 to 10000	< 3000	O=C[C@@H]1CC=CCCCCOc2ccccc2C(=O)N1 (mixture of isomers) [Compound 5, (S)-11-Oxo-2,3,4,5,8,9,10,11-octahydrobenzo[b][1]oxa[5]azacyclotridecine-9-carbaldehyde]
> 10000	> 10000	3000 to 10000	O=C(NCc1ccc(Cl)cc1Cl)C(=O)C1CCCCOCCOCc2ccccc2C(=O)N1 (stereo not drawn) [Compound 96, N-(2,4-dichlorobenzyl)-2-oxo-2-(12-oxo-1,3,4,6,7,8,9,10,11,12-decahydrobenzo[f][1,4]dioxa[9]azacyclotetradecin-10-yl)acetamide]
